# Substitutions are numbered along the chain they refer to.
# How the values were obtained:
# [1] = test system: dHL-60 cells; assay: DCFDA ROS assay after wash and recovery (affinity assay); format: cell-based, human; conditions: 2 hr treatment, recovery 4 hr or 2 hr
# Procedure: (A) Apoptosis analysis by FACS of HL-60 cells treated with compound or vehicle control for 2 hours prior to 7-AAD and Annexin V staining. (B) HL-60 cells from A were harvested and lysates were immunoblotted for levels of pPAK, and actin was used as a control for loading. (C) F-actin reorganization in freshly isolated fMLP-stimulated primary murine neutrophils was analyzed. […] Cells were exposed to a 10 μM dose of Phox-I1, Phox-I2, and Analog 13, and 200 nM nocodazole. (D) The effect of Phox-I on NOX4 mediated ROS production was tested in primary murine neutrophils transfected with a NOX4 expressing plasmid. 10 μM Phox-I1 was applied to the cells for 30 min prior to ROS assay by luminol chemiluminescence in the presence of HRP. The fMLP-stimulated ROS activity in the presence or absence of 10 uM Phox-I1 was measured in parallel. (E) The antioxidant abilities of these lead compounds were tested by prestimulating dHL-60 cells with fMLP for 30 minutes prior to treatment with Phox-I1 or Phox-I2. Levels of superoxide were analyzed by DCFDA assay and FACS. NAC, apocyanin, DPI, and NSC23766 treated cells served as controls. (F) For affinity assay, DMSO-differentiated HL-60 cells were treated with standard effective dose of indicated compound for 2 hours, washed, and allowed to recover in normal media for 4 hours or 2 hours prior to fMLP stimulation and DCFDA ROS production assay by FACS analysis. (G) For stability assay, DMSO-differentiated HL-60 cells were treated with 20 μM dose of compound for the indicated time period prior to fMLP stimulation and DCFDA ROS production assay by FACS analysis.
# Next, a stability experiment was performed to determine the duration of effectiveness of the compound in suppressing neutrophils. To analyze the relative affinities of these compounds for the p67^phox target in cells, DCFDA ROS production assays were performed in dHL-60 cells treated with compound for 2 hr followed by wash and recovery for 4 hr or 2 hr in normal media prior to ROS production analysis.
# [2] = test system: primary murine neutrophils; assay: F-actin immunofluorescence, polarization upon fMLP stimulation; format: cell-based, mouse; conditions: 10 μM; untreated control about 80%
# Procedure: Cells were pretreated with compound for 40 minutes prior to wash, and resuspended in HBSS with compound. Cells were allowed to adhere to fibronectin (Sigma Aldrich) coated glass coverslips (15 min) and then stimulated with 100 nM fMLP (3 min). Coverslips were then fixed with 3.7% paraformaldehyde (Sigma Aldrich) and then staining for […] was performed with rhodamine phalloidin per the manufacturer's instructions (Molecular Probes). Another method of addressing Rac-signaling specificity in neutrophils is by monitoring their ability to polarize actin to the leading edge upon fMLP stimulation. Neither Phox-I1, Phox-I2, nor an analog 13 (all at 10 μM), were able to block the Rac-mediated dynamic process of F-actin polarization to the leading edge of primary murine neutrophils as observed by F-actin immunofluorescence imaging (FIG. 4C, left panel). F-actin polarization was evident in about 80% of each treatment group of cells as in the control, untreated cells (FIG. 4C, right panel).
# [3] = biological target: T1, p67^phox binding to Rac1V12 (Homo sapiens, UniProt P19878); assay: competition binding of p67phox with Rac1V12 by microscale thermophoresis; conditions: 5 μM, 15 min prior to titration of Rac1V12
# T1 construct: using the pET30-HIS p67(1-212) plasmid; His; made in house; host or cells: E. coli BL21(DE3) for p67phox
# T1 sequence (P19878 1-212): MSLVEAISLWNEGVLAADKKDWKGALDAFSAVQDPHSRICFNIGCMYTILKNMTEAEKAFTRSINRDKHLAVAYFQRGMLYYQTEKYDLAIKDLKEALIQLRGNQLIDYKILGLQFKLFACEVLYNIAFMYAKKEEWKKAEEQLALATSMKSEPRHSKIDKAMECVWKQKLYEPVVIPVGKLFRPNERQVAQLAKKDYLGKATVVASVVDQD
# Procedure: (§1) Proteins were labeled for microscale thermophoresis using the Monolith NT Protein Labeling Kit Red (Nano Temper Technologies) as recommended by the manufacturer. Binding reactions were carried out using the Monolith NT. 115 (Nano Temper Technologies). Binding data was analyzed using Graphpad Prizm to estimate Kd values. The arbitrary fluorescence value from the thermophoresis plots for the smallest compound titration was subtracted from every other data point (Delta depletion) prior to normalization to a Vmax of 100. In thermophoresis plots where there was no binding, a curve could not be fit and therefore no Vmax could be assigned. In these instances the highest delta depletion value was set to 100 and all data were normalized accordingly.
# Next, to perform a competition binding, p67^phox protein was first incubated with either 5 μM Phox-I1 or an equal volume of vehicle control for 15 min prior to titration of purified Rac1V12 protein. […] Thus, Phox-I1 binding to p67^phox is specific and not due to nonspecific effects, such as aggregation.
# [4] = test system: glucose oxidase-produced ROS; assay: luminol chemiluminescence assay of glucose oxidase-generated ROS; format: cell-based, human
# Procedure: Human neutrophils (2×10^5) were stimulated in HBSS supplemented with 0.1% BSA, 1 mM Ca2+, 1 mM Mg2+ and with fMLP (10 μM), PMA (300 nM) or glucose oxidase (200 mU/ml) for 30 min in the presence of 10 μM [8-amino-5-chloro-7-phenylpyrido[3,4-d]pyridazine-1,4(2H,3H)dione] (L012).
# Chemiluminescence was measured using GloMax®-96 Microplate Luminometer (Promega) (Tarpey et al., (2004) Am J Physiol Regul Integr Comp Physiol 286: R431-R444, hereby incorporated by reference in its entirety). The generation of […] by the xanthine/xanthine oxidase was performed in PBS supplemented with xanthine oxidase (0.004 U), HRP (0.005 U·mL^−1) and L012, following the protocol described in Wind et al., (2010) Br J Pharmacol. 161, 885-898, hereby incorporated by reference in its entirety. The reaction was started by the addition of xanthine (0.5 mM).
# [5] = biological target: T2, p67R38Q (Homo sapiens, UniProt P19878, R38Q); assay: microscale thermophoresis binding to p67phox R38Q mutant; conditions: residue critical for Rac1-GTP binding
# T2 construct: using the pET30-HIS p67(1-212) plasmid; His; made in house; host or cells: E. coli BL21(DE3)
# T2 sequence (P19878 1-212 R38Q): T1 sequence (P19878 1-212) with R38Q
# Procedure: The p67^phox protein was expressed in BL21(DE3) bacteria (Stratagene) using the pET30-HIS p67(1-212) plasmid. Protein was purified using the QIAexpress Ni-NTA kit (Qiagen) or the GST Bind Resin Chromatography Kit (Novagen) for RacV12 and RacWT proteins. Mutagenesis was carried out using the Quick Change Lightening Site Directed Mutagenesis Kit (Stratagene).
# as §1
# Next, to perform a competition binding, p67^phox protein was first incubated with either 5 μM Phox-I1 or an equal volume of vehicle control for 15 min prior to titration of purified Rac1V12 protein. […]
effect on glucose oxidase-produced ROS [4],binding to p67^phox R38 mutant [5],Compound,ROS inhibition after wash [1],cells with F-actin polarization [2],competition with Rac1V12 for p67^phox [3]
–,–,O=[N+]([O-])c1cccc(C2Nc3ccc([N+](=O)[O-])cc3C3C=CCC32)c1 (stereo not shown) [Phox-I2],did not display effective ROS inhibition,about 80%,–
did not affect,disrupted the binding ability,COc1ccc2c(c1)C1C=C(c3ccccc3)NN1C(c1cccc([N+](=O)[O-])c1)O2 (stereo not shown) [Phox-I1],still evident,about 80%,disruption of p67^phox binding to Rac1V12

# From patent US9567347B2, “Use of small molecule inhibitors targeting the interaction between RAC GTPase and p67(phox)” (CHILDREN'S HOSPITAL MEDICAL CENTER, priority 2012, dated 2017)
